Laboratory results published in patent US9468209B2, “Method for eradicating weeds with derivatives of 3-acetyl-5-sec-butyl-4-hydroxy-3-pyrrolin-2-one” (priority 2012, dated 2016).

Tests used:
Hill reaction = Hill reaction activity of treated Crofton weed leaves; format: biochemical; conditions: 50 μg/mL, strong light 12 hours
Method in brief: (§1)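 Cleaned Crofton weed leaves had 50 μg/mL compound (methanol diluted in water) applied to the underside, with matching methanol–water control. Vacuum 15 min at 25° C, then 12 h strong light (400 μM m^−2 s^−1) before measuring Hill reaction, electron transfer and chlorophyll fluorescence; four leaves per treatment, tested three times.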

[1] = system: fluorescence of chlorophyll; test: Fluorescence of chlorophyll of treated Crofton weed leaves; format: biochemical; conditions: 50 μg/mL, strong light 12 hours
Method in brief: as §1

Crofton weed [2] = test: Spray on leaves and stems of three-leaf-stage Crofton weed seedlings grown in pots in a greenhouse; format: in vivo; parameters: key: 4: Plant completely dead; 3: Two thirds of the plant stems and leaves dried out; 2: Half of the plant stems and leaves dried out; 1: One third of the plant stems and leaves dried out; 0: No damage at all; conditions: 50 μg/mL spray, assessed two days later
Method: Compounds 1, 2, 3, and 40 were separately dissolved in a small amount of methanol. The solutions were then diluted with distilled water to a concentration of 50 μg/mL. A mixture of methanol and water in the same ratio as the sample solution was also prepared and used as control in the experiment. The solutions were sprayed on leaves and stems of three-leaf-stage Crofton weed seedlings. All the plants were grown in pot in a greenhouse. The leaves were properly wet by the solutions for consistency and the treatment was repeated 3 times. The measurement of the plant damage was calculated by the formula: Damage Index=Σ(damage level×number of plants)×100/4/number of plants in each treatment.

Crofton weed [3] = test: Needle puncture test on Crofton weed with washes recovered from compound-treated soil; format: in vivo; conditions: after soil treatment (3 hours)
Method: Compounds 1, 2, 3, and 40 were dissolved in small amount of methanol and diluted with distilled water to concentration of 50 μg/mL. The solution was sprayed to the soil sample until the soil was wet but not overflows. After standing at room temperature for 3 hours, the soil sample was washed with water and methanol. The wash solution was collected and concentrated. Such process was repeated three times. The concentrated solutions were used for herbicidal activity test using the method of needle puncture on Crofton weed. Methanol water solution and pure water were used as control. The experiment for every sample was repeated six times. The spot diameters were measured with vernier caliper after the plant was kept under natural light at 25° C. for 24 hours (Table 11).

Row | SMILES | Activity of Hill Reaction (Hill reaction) | Fv/Fm [1] | Damage level (Crofton weed [2]) | Average diameter of the spot after 24 h, H2O wash (Crofton weed [3]; H2O wash) | Average diameter of the spot after 24 h, Methanol wash (Crofton weed [3]; Methanol wash)
1 | CCCCC1NC(=O)C(C(C)=O)=C1O (stereo not drawn) [Compound 14] | 67.37 uMO2/mgChlh | 0.79 | – | – | –
2 | CCCCCC1NC(=O)C(C(C)=O)=C1O (stereo not drawn) [Compound 15] | 62.77 uMO2/mgChlh | 0.78 | – | – | –
3 | CCCCCCC1NC(=O)C(C(C)=O)=C1O (stereo not drawn) [Compound 16] | 61.43 uMO2/mgChlh | 0.83 | – | – | –
4 | CCCC(Cl)C1NC(=O)C(C(C)=O)=C1O (stereo not drawn) [Compound 40] | 46.20 uMO2/mgChlh | 0.82 | 4 | 0.336 ± 0.050 mm | 0.416 ± 0.024 mm
5 | CCC(C)C1NC(=O)C(C(=O)CCF)=C1O (stereo not drawn) [Compound 44] | 59.15 uMO2/mgChlh | 0.79 | – | – | –
6 | CCCC(C#N)C1NC(=O)C(=C(C)O)C1=O (stereo not drawn) [Compound 53] | 42.72 uMO2/mgChlh | 0.79 | – | – | –
